Among the data in patent US20220153734A1, “Pyrazolopyridine Compounds For IRE1 Inhibition” (Optikira, LLC, priority 2019, published 2022) are IC50 values, retold here.

One assay concerns the target T1, IRE1α (Homo sapiens, UniProt O75460).
T1 construct: purchased Signal Chem E31-11G
The assay is described as follows: Biochemical assay: inhibition of RNase activity of IRE1α. As to conditions: enzyme 0.325 nM, substrate 100 nM, 20 minutes. The procedure, abridged: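 RNase cleavage monitored as dequenching of a 5′ Alexa Fluor 647/3′ quencher RNA oligo (100 nM), stopped with 5 M urea after 20 min at room temperature. Enzyme 0.325 nM, preceded by 30 min compound pre-incubation; buffer Tris/MgCl2/KCl/DTT/Tween, 4% DMSO final. IC50 from curve fit of % inhibition.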

In assay [1] the test system is ARPE-19 cells stably expressing XBP1 (a.a. 1-376). The assay is described as follows: Cellular XBP1 splicing assay (NanoLuc luciferase, thapsigargin). As to conditions: Homo sapiens, ARPE-19, 4 h, thapsigargin 150 nM. The class given is cell-based. In short, it runs like this:
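ARPE-19 cells carrying an XBP1(1-376)-NanoLuc splicing reporter were pretreated with compound (10-point ½-log series, 0.117% DMSO) for 30 min, then stressed with 150 nM thapsigargin for 4 h at 37° C. Luminescence was read, and IC50 values came from sigmoidal fits of percent inhibition of control.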

T1 sequence (O75460 468-977 limits assumed): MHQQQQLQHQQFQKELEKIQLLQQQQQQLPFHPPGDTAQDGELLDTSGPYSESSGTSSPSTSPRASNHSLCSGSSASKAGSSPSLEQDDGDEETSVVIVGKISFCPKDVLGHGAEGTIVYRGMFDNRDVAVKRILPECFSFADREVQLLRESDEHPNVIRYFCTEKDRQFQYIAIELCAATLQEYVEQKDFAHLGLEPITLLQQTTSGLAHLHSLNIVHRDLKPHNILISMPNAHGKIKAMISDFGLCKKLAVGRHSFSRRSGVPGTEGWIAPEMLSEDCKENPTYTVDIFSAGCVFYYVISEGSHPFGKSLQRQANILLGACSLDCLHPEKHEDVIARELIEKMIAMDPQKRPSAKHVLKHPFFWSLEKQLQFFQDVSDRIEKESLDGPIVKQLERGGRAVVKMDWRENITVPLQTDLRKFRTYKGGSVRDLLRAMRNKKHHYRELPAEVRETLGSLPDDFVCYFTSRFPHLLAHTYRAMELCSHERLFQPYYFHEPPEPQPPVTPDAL

In the case of `COCCN[C@H]1CC[C@H](c2cnc(N)c3c(-c4cc(F)c(NS(=O)(=O)c5ccc(F)cc5Cl)cc4F)nn(C(C)C)c32)CC1` [Compound A15, N-(4-(4-amino-1-isopropyl-7-((1r,4r)-4-((2-methoxyethyl)amino)cyclohexyl)-1H-pyrazolo[4,3-c]pyridin-3-yl)-2,5-difluorophenyl)-2-chloro-4-fluorobenzenesulfonamide], the half-maximal inhibitory concentration (IC50) on IRE1α came to 6.6 nM; in assay [1], 13 nM.

In the case of `COCCN[C@H]1CC[C@H](c2cnc(N)c3c(-c4cc(F)c(NS(=O)(=O)c5ccc(Cl)cc5F)cc4F)nn(C(C)C)c32)CC1` [Compound A16, N-(4-(4-amino-1-isopropyl-7-((1r,4r)-4-((2-methoxyethyl)amino)cyclohexyl)-1H-pyrazolo[4,3-c]pyridin-3-yl)-2,5-difluorophenyl)-4-chloro-2-fluorobenzenesulfonamide], the results for the IC50 (against IRE1α; in assay [1]) were 7.8 nM and 77 nM, respectively.

Take `COCCN[C@H]1CC[C@H](c2cnc(N)c3c(-c4cc(F)c(NS(=O)(=O)Cc5ccc(F)cc5)cc4F)nn(C(C)C)c32)CC1` [Compound A17, N-(4-(4-amino-1-isopropyl-7-((1r,4r)-4-((2-methoxyethyl)amino)cyclohexyl)-1H-pyrazolo[4,3-c]pyridin-3-yl)-2,5-difluorophenyl)-1-(4-fluorophenyl)methanesulfonamide]: the results for the IC50 (on IRE1α; in assay [1]) were 0.9 nM and 12 nM, respectively.

On to `COCCN[C@H]1CC[C@H](c2cnc(N)c3c(-c4ccc(NS(=O)(=O)c5ccccc5F)cc4F)nn(C(C)C)c32)CC1` [Compound A18], for which the results for the 50% inhibitory concentration (IC50) (on IRE1α; in assay [1]) were 12 nM and 37 nM, respectively.

In the case of `COCCN[C@H]1CC[C@H](c2cnc(N)c3c(-c4cc(F)c(NS(=O)(=O)c5ccccc5Cl)cc4F)nn(C(C)C)c32)CC1` [Compound A19, N-(4-(4-amino-1-isopropyl-7-((1r,4r)-4-((2-methoxyethyl)amino)cyclohexyl)-1H-pyrazolo[4,3-c]pyridin-3-yl)-2,5-difluorophenyl)-2-chlorobenzenesulfonamide], the IC50 at IRE1α was 6.1 nM; in assay [1] it was 4 nM.

In the case of `COCCN[C@H]1CC[C@H](c2cnc(N)c3c(-c4cc(F)c(NS(=O)(=O)Cc5ccccc5Cl)cc4F)nn(C(C)C)c32)CC1` [Compound A20, N-(4-(4-amino-1-isopropyl-7-((1r,4r)-4-((2-methoxyethyl)amino)cyclohexyl)-1H-pyrazolo[4,3-c]pyridin-3-yl)-2,5-difluorophenyl)-1-(2-chlorophenyl)methanesulfonamide], the half-inhibitory concentration (IC50) was 1.2 nM at IRE1α and 13 nM in assay [1].

In the case of `COCCN[C@H]1CC[C@H](c2cnc(N)c3c(-c4cc(F)c(NS(=O)(=O)c5cc(C#N)ccc5F)cc4F)nn(C(C)C)c32)CC1` [Compound A21, N-(4-(4-amino-1-isopropyl-7-((1r,4r)-4-((2-methoxyethyl)amino)cyclohexyl)-1H-pyrazolo[4,3-c]pyridin-3-yl)-2,5-difluorophenyl)-5-cyano-2-fluorobenzenesulfonamide], the IC50 on IRE1α worked out at 4.7 nM; in assay [1], 3800 nM.

For the compound `CC(C)n1nc(-c2cc(F)c(NS(=O)(=O)Cc3ccccc3F)cc2F)c2c(N)ncc([C@H]3CC[C@H](N(C)C)CC3)c21` [Compound A22, N-(4-(4-amino-7-((1r,4r)-4-(dimethylamino)cyclohexyl)-1-isopropyl-1H-pyrazolo[4,3-c]pyridin-3-yl)-2,5-difluorophenyl)-1-(2-fluorophenyl)methanesulfonamide], the IC50 against IRE1α stood at 1.8 nM; in assay [1], 15 nM.

Consider `COCCN[C@H]1CC[C@H](c2cnc(N)c3c(-c4cc(F)c(NS(=O)(=O)c5c(F)cccc5F)cc4F)nn(C(C)C)c32)CC1` [Compound A23, N-(4-(4-amino-1-isopropyl-7-((1r,4r)-4-((2-methoxyethyl)amino)cyclohexyl)-1H-pyrazolo[4,3-c]pyridin-3-yl)-2,5-difluorophenyl)-2,6-difluorobenzenesulfonamide], for which the values for the IC50 (against IRE1α; in assay [1]) were 9.7 nM and 160 nM, respectively.

Consider `COCCN[C@H]1CC[C@H](c2cnc(N)c3c(-c4cc(F)c(NS(=O)(=O)c5ccc(F)cc5F)cc4F)nn(C(C)C)c32)CC1` [Compound A24, N-(4-(4-amino-1-isopropyl-7-((1r,4r)-4-((2-methoxyethyl)amino)cyclohexyl)-1H-pyrazolo[4,3-c]pyridin-3-yl)-2,5-difluorophenyl)-2,4-difluorobenzenesulfonamide], for which the values for the half-maximal inhibitory concentration (IC50) (against IRE1α; in assay [1]) were 5.4 nM and 82 nM, respectively.

`COCCN[C@H]1CC[C@H](c2cnc(N)c3c(-c4cc(F)c(NS(=O)(=O)c5cccc(F)c5F)cc4F)nn(C(C)C)c32)CC1` [Compound A25, N-(4-(4-amino-1-isopropyl-7-((1r,4r)-4-((2-methoxyethyl)amino)cyclohexyl)-1H-pyrazolo[4,3-c]pyridin-3-yl)-2,5-difluorophenyl)-2,3-difluorobenzenesulfonamide]: the 50% inhibitory concentration (IC50) came to 9 nM on IRE1α and 25 nM in assay [1].

For the compound `COCCN[C@H]1CC[C@H](c2cnc(N)c3c(-c4cc(F)c(NS(=O)(=O)Cc5ccccc5F)cc4F)nn(C(C)C)c32)CC1` [Compound A26, N-(4-(4-amino-1-isopropyl-7-((1r,4r)-4-((2-methoxyethyl)amino)cyclohexyl)-1H-pyrazolo[4,3-c]pyridin-3-yl)-2,5-difluorophenyl)-1-(2-fluorophenyl)methanesulfonamide], the half-inhibitory concentration (IC50) came to 1.5 nM at IRE1α and 13 nM in assay [1].

Turning to `COCCN(CCOC)[C@H]1CC[C@H](c2cnc(N)c3c(-c4cc(F)c(NS(=O)(=O)c5cc(OC)ccc5F)cc4F)nn(C(C)C)c32)CC1` [Compound A27, N-(4-(4-amino-7-((1r,4r)-4-(bis(2-methoxyethyl)amino)cyclohexyl)-1-isopropyl-1H-pyrazolo[4,3-c]pyridin-3-yl)-2,5-difluorophenyl)-2-fluoro-5-methoxybenzenesulfonamide], the IC50 (on IRE1α; in assay [1]) was 13 nM each time.

As for `COCCN[C@H]1CC[C@H](c2cnc(N)c3c(-c4cc(F)c(NS(=O)(=O)c5cc(OC)ccc5F)cc4F)nn(C(C)C)c32)CC1` [Compound A28], the IC50 on IRE1α was found to be 2.9 nM; in assay [1] it was 6.9 nM.

With `COCCN(CCOC)[C@H]1CC[C@H](c2cnc(N)c3c(-c4cc(F)c(NS(=O)(=O)c5cccc(C(F)(F)F)c5)cc4F)nn(C(C)C)c32)CC1` [Compound A29, N-(4-(4-amino-7-((1r,4r)-4-(bis(2-methoxyethyl)amino)cyclohexyl)-1-isopropyl-1H-pyrazolo[4,3-c]pyridin-3-yl)-2,5-difluorophenyl)-3-(trifluoromethyl)benzenesulfonamide], the IC50 was 32 nM against IRE1α and 500 nM in assay [1].

Regarding `COCCN[C@H]1CC[C@H](c2cnc(N)c3c(-c4cc(F)c(NS(=O)(=O)c5cccc(C(F)(F)F)c5)cc4F)nn(C(C)C)c32)CC1` [Compound A30, N-(4-(4-amino-1-isopropyl-7-((1r,4r)-4-((2-methoxyethyl)amino)cyclohexyl)-1H-pyrazolo[4,3-c]pyridin-3-yl)-2,5-difluorophenyl)-3-(trifluoromethyl)benzenesulfonamide], the 50% inhibitory concentration (IC50) against IRE1α was found to be 3.8 nM; in assay [1] it was 93 nM.
